In the OligoGym collection:
Values joined by “and” are separate entries in the source; they are usually repeats but may differ in a detail not shown here. Equal values may be shown once. After the bases stand the sugars from the 5' end (letter, count) and the backbone: PS all phosphorothioate, else s phosphorothioate and o phosphodiester by linkage. Methylation of C is not given here. e = 2'-O-(2-methoxyethyl) (MOE); k = constrained ethyl (cEt); d = 2'-deoxy (DNA)

Biological target: IRF5
Details: ASO

| Sequence | target mRNA inhibition (KARPAS-229, 4 µM) | other results |
| --- | --- | --- |
| GTCTTGACCTCCCGCT (sugars kkddddddddkekekk, PS) | 26% |  |
| GTGACTGTATTACCTA (sugars k3 d10 k3, PS) | 62% and 70% | target mRNA inhibition (KARPAS-229, 0.44444 µM): 9%; target mRNA inhibition (KARPAS-229, 1.33333 µM): 39%; target mRNA inhibition (KARPAS-229, 12 µM): 81% |
| GTGAGACGAGCAAAGG (sugars k3 d10 k3, PS) | 49% and 74% | target mRNA inhibition (KARPAS-229, 0.44444 µM): 60%; target mRNA inhibition (KARPAS-229, 1.33333 µM): 49%; target mRNA inhibition (KARPAS-229, 12 µM): 77% |
| GTGAGTCTCAAACCAG (sugars k3 d9 k3 e1, PS) | 44% and 50% | target mRNA inhibition (KARPAS-229, 0.44444 µM): 23%; target mRNA inhibition (KARPAS-229, 1.33333 µM): 39%; target mRNA inhibition (KARPAS-229, 12 µM): 59% |
| GTGAGTCTCAAACCAG (sugars k3 d10 k3, PS) | 9% |  |
| GTGAGTCTCAAACCAG (sugars kdddddddddkekeke, PS) | 0% |  |
| GTGAGTCTCAAACCAG (sugars kkdddddddddkekek, PS) | 0% |  |
| GTGTATTTCCCTGTCT (sugars k2 d8 e4 k2, PS) | 0% |  |
| GTGTATTTCCCTGTCT (sugars k3 d9 k3 e1, PS) | 30% |  |
| GTGTATTTCCCTGTCT (sugars kkdddddddddkdkdk, PS) | 0% |  |
| GTTATCTCCGTCCTGG (sugars kekdddddddddeekk, PS) | 13% |  |
| GTTATCTCCGTCCTGG (sugars kkdddddddddkekek, PS) | 0% |  |
| GTTATCTCCGTCCTGG (sugars kkddddddddkekekk, PS) | 0% |  |
| GTTATCTCCGTTCCTGG (sugars kkkdddddddddkeked, PS) | 0% |  |
| GTTATCTCCGTTCCTGG (sugars kkkddddddddkekekd, PS) | 0% |  |
| GTTCTTGGACTCTCAA (sugars k2 d8 e4 k2, PS) | 8% |  |
| GTTCTTGGACTCTCAA (sugars kkddddddddddkeke, PS) | 27% |  |
| GTTCTTGGACTCTCAA (sugars kkdddddddddkekek, PS) | 31% |  |
| TAGTGTCATGGAATTT (sugars k3 d10 k3, PS) | 38% |  |
| TCACCACTGTGTACCC (sugars kkdddddddddkekek, PS) | 0% |  |
| TCACCACTGTGTACCC (sugars kkddddddddkekekk, PS) | 0% |  |
| TCACCACTGTGTACCC (sugars kkkddddddddkekek, PS) | 0% |  |

| Sequence | target mRNA inhibition (KARPAS-229, 4 µM) | other results |
| --- | --- | --- |
| TCCAATTTTGCATTCC (sugars kkkdddddddddkeke, PS) | 14% |  |
| TCCAATTTTGCATTCC (sugars kkkddddddddkdkdk, PS) | 32% |  |
| TCTGCAGGGAGTCAGA (sugars k3 d10 k3, PS) | 0% |  |
| TCTGGCCCTTTTGGAA (sugars kkddddddddkekekk, PS) | 0% |  |
| TGAATTTTGTGACTGT (sugars k3 d10 k3, PS) | 64% and 70% | target mRNA inhibition (KARPAS-229, 0.44444 µM): 32%; target mRNA inhibition (KARPAS-229, 1.33333 µM): 59%; target mRNA inhibition (KARPAS-229, 12 µM): 81% |
| TGAGACGAGCAAAGGG (sugars k3 d10 k3, PS) | 22% |  |
| TGAGTCATGGAGCTGAG (sugars k2 d9 e3 k2 d1, PS) | 16% |  |
| TGAGTCATGGGCTGAG (sugars k3 d10 k3, PS) | 0% |  |
| TGAGTCATGGGCTGAG (sugars kkddddddddddkeke, PS) | 0% |  |
| TGAGTCATGGGCTGAG (sugars kkkdddddddddkeke, PS) | 17% |  |
| TGAGTCTCAAACCAGG (sugars k3 d9 k3 e1, PS) | 0% |  |
| TGAGTCTCAAACCAGG (sugars k3 d10 k3, PS) | 16% |  |
| TGCACTGACACAGGCG (sugars k3 d9 k3 e1, PS) | 0% |  |
| TGCACTGACACAGGCG (sugars kkddddddddddkeke, PS) | 16% |  |
| TGCACTGACACAGGCG (sugars kkdddddddddkdkdk, PS) | 0% |  |
| TGTCTAGTGTCATGGA (sugars k3 d9 k3 e1, PS) | 39% |  |
| TGTCTAGTGTCATGGA (sugars kkdddddddddkdkdk, PS) | 40% |  |
| TTATCTCCGTCCTGGC (sugars k3 d9 k3 e1, PS) | 0% |  |
| TTATTTCTGCTCCAGG (sugars k3 d10 k3, PS) | 55% and 77% | target mRNA inhibition (KARPAS-229, 0.44444 µM): 51%; target mRNA inhibition (KARPAS-229, 1.33333 µM): 66%; target mRNA inhibition (KARPAS-229, 12 µM): 84% |
| TTATTTCTGCTCCAGG (sugars kddddddddddkekek, PS) | 0% |  |
| TTATTTCTGCTCCAGG (sugars kkdddddddddkekek, PS) | 9% |  |
| TTCTGCAGGGAGTCAG (sugars k3 d10 k3, PS) | 0% |  |
